Experimental data as given in patent publication US9872919B2, “Prodrugs for selective anticancer therapy” (THE RESEARCH FOUNDATION FOR THE STATE UNIVERSITY OF NEW YORK, priority 2012, dated 2018).

Columns and labels:
[1] = test system: non-malignant Caco-2 cells; assay: Cell number determination, Caco-2; type: cell-based, human; details: 54 μM, 5 d
Procedure: FIG. 9. The colon cancer cell lines were grown for 5 d either with vehicle control DMSO (gray symbols) or 54 μM BKAc-Puro (red and blue symbols), and cell number was determined at the indicated time points.
(§1) Cell number was determined by cell counting using improved Neubauer hemacytometer. Cell viability was calculated as the number of viable cells divided by the total number of cells using Trypan Blue Stain (Invitrogen) to distinguish non-viable cells. Data were obtained from duplicated samples with quadruplicate measurements. MTS based cell viability assay was performed using CellTiter 96 Aqueous Cell Proliferation Assay (Promega) according to the manufacturer's instruction. Either 1 μl of DMSO alone or variable concentrations of BKAc-Puro or Puro in DMSO were added to the cell lines seeded at 5×10^4 cells per well in 96-well tissue culture plates in 100 μl of the growth medium, followed by 3-5 d incubation at 37° C. with 5% CO2 atmosphere. […] After additional 2-3 h incubation, the absorbance of the formazan at 490 nm was measured by the microplate reader. […] Determination of non-viable cells using PI staining was performed by adding 1 μg/ml of PI solution (Sigma) to the cell culture, prior to the examination under fluorescence microscopy (Axiovert 3, Carl Zeiss) through a×32 objective equipped with a digital imaging processor (Infinity 3, Lumenera).

[2] = test system: HCT116 xenograft tumors
Source text: HCT116 cells were implanted subcutaneously into female nude mice. When the developed tumors reached 200 mm^3, animals were intraperitoneally injected by the indicated dose of the compound or vehicle control (DMSO). Tumor volume was estimated by the equation vol=(a×b^2)/2, where vol, a, and b represent volume, the length of the major axis, and the length of the minor axis, respectively. […] (b) Body weight change during the treatment in a. Value is expressed in percent change compared to the day of the first treatment.
HCT116 cells were implanted subcutaneously into female nude mice. When palpable tumors reached 50-150 mm^3, animals were randomized and treated by the indicated dose of the compound or vehicle control (DMSO) via intraperitoneal injection. Tumor incidence is presented as number of mice developed tumor (volume>300 mm^3) after 2 weeks of daily treatment/number of mice treated. Tumor volume was estimated by the equation vol=(a×b^2)/2, where vol, a, and b represent volume, the length of the major axis, and the length of the minor axis, respectively.
The growth inhibitory effects of the compounds on size-matched xenografts are examined by subcutaneous implantation of HCT116 cells into nude mice. HCT116 cells are injected subcutaneously and allowed to develop palpable tumors (50-150 mm^3) before initiation of drug administration. Mice (5-10 animals per group) are treated with the vehicle (DMSO or PBS) or the prodrugs by intraperitoneal administration. […] Tumor volumes are approximated by using the equation vol=(a×b^2)/2, where vol, a, and b represent volume, the length of the major axis, and the length of the minor axis, respectively. Relative tumor volume is calculated by dividing tumor volume by that on day 0 (the day of treatment initiation). The weight of the mice is checked to monitor unfavorable effects by the compounds being tested and upon any indication of distress the mice is humanely euthanized.

[3] = test system: normal mammary gland epithelial cells (Eph4); assay: PI staining cytotoxicity, normal mammary gland epithelial cells; type: cell-based, mouse
Procedure: FIG. 17. Selective cytotoxicity by BKAc-Puro on breast cancer cells. Normal mammary gland epithelial cells (Eph4) and breast cancer cells (MCF-7 and MDA-MB-231) were grown and analyzed as in FIG. 10. BF, bright field. PI, fluorescent PI channel. BKAc-Puro can selectively cause cell death in breast cancer cells (MCF-7 and MDA-MB-231) while leaving normal Eph4 cells unharmed.
as §1, with “instruction.” for “instruction. Either 1 μl of DMSO alone or variable concentrations of BKAc-Puro or Puro in DMSO were added to the cell lines seeded at 5×10^4 cells per well in 96-well tissue culture plates in 100 μl of the growth medium, followed by 3-5 d incubation at 37° C. with 5% CO2 atmosphere.”

[4] = test system: pancreatic cancer cells (BXPC-3 and MiaPaca-2); assay: MTS cell viability assay, pancreatic cancer cell lines; type: cell-based, human
Procedure: FIG. 16. Anticancer effect of BKAc-Puro on pancreatic cell lines. The cell lines were treated with DMSO (vehicle), BKAc-Puro (54 μM), or Puro (4.2 μM) for 5 d followed by MTS assay. Normal Eph4 (non-pancreatic) cells are shown as control. Data represent mean values of triplicate mesurements±s.d.
FIG. 18. Selective cytotoxicity by BKAc-Puro on pancreatic cancer cells. Pancreatic cancer (BXPC-3 and Miapaca-2), colon cancer (HCT116 as a positive control sensitive to the drug), and normal colon (CCD841-CoN as a negative control) cells were grown and analyzed as in FIG. 13. […]
(§2) Cell number was determined by cell counting using improved Neubauer hemacytometer. Cell viability was calculated as the number of viable cells divided by the total number of cells using Trypan Blue Stain (Invitrogen) to distinguish non-viable cells. […] After additional 2-3 h incubation, the absorbance of the formazan at 490 nm was measured by the microplate reader. […] Determination of non-viable cells using PI staining was performed by adding 1 μg/ml of PI solution (Sigma) to the cell culture, prior to the examination under fluorescence microscopy (Axiovert 3, Carl Zeiss) through a×32 objective equipped with a digital imaging processor (Infinity 3, Lumenera).

[5] = test system: HCT116, HT29, CCD841-CoN and Caco-2 cells; assay: Immunological detection of Puro-labeled proteins in cells; type: cell-based, human
Procedure: (§3) FIG. 27. Levels of Puro-incorporated proteins in the cells were monitored by immunoblotting. Indicated cell lines were treated either with vehicle control DMSO or Boc-KAc-Puro (16.9 μM) in the presence or absence of TSA (0.5 μM) for 20 h, followed by preparation of cell lysates. The lower panel (anti-α-Tubulin) serves as a loading control.
as §3, with “28.” for “27.”, “Puro (2.1” for “Boc-KAc-Puro (16.9”, “16” for “20”, “lysates. […]” for “lysates.”
Cultured cells or tissue samples were sonicated in RIPA lysis buffer (1% NP-40, 0.1% SDS, 50 mM Tris-HCl pH 7.4, 150 mM NaCl, 0.5% sodium deoxycholate, 1 mM EDTA) supplemented with PMSF and protease inhibitor cocktail (Roche) on ice followed by clarification. Protein lysates were separated on sodium dodecyl sulfate-polyacrylamide gels and transferred onto nitrocellulose membranes (Whatman). The primary antibodies used were anti-puromycin (3RH11, KeraFAST) and anti-α-tubulin (Sigma-Aldrich). Proteins of interest were detected with anti-mouse secondary antibody by chemiluminescence (ECL Kit, GE Healthcare Life Sciences).

[6] = test system: CCD841-CoN cells; assay: MTS cell viability assay, normal colon cells; type: cell-based, human; details: negative control in pancreatic and prostate panels
Procedure: FIG. 15. Inhibition of cell viability by BKAc-Puro. The cell lines were grown and analyzed as in FIG. 12.
FIG. 18. Selective cytotoxicity by BKAc-Puro on pancreatic cancer cells. Pancreatic cancer (BXPC-3 and Miapaca-2), colon cancer (HCT116 as a positive control sensitive to the drug), and normal colon (CCD841-CoN as a negative control) cells were grown and analyzed as in FIG. 13. BKAc-Puro can effectively cause cell death on pancreatic cancer cells (BXPC-3 and MiaPaca-2) that are known to resistant to conventional chemotherapeutic drugs including 5-FU and Gemicitabine.
(§4) FIG. 19. Selective cytotoxicity by BKAc-Puro on prostate cancer cells. Prostate cancer (PC-3, DU-145, and LNCaP), colon cancer (HCT116 as a positive control sensitive to the drug), and normal colon (CCD841-CoN as a negative control) cells were grown and analyzed as in FIG. 13. BKAc-Puro can effectively cause cell death on prostate cancer cells.
Cell number was determined by cell counting using improved Neubauer hemacytometer. Cell viability was calculated as the number of viable cells divided by the total number of cells using Trypan Blue Stain (Invitrogen) to distinguish non-viable cells. Data were obtained from duplicated samples with quadruplicate measurements. […] After additional 2-3 h incubation, the absorbance of the formazan at 490 nm was measured by the microplate reader. […]

[7] = test system: prostate cancer cells (PC-3, DU-145 and LNCaP); assay: Cytotoxicity on prostate cancer cells (MTS); type: cell-based, human
Procedure: as §4
as §2, with “cells. Data were obtained from duplicated samples with quadruplicate measurements. MTS based cell viability assay was performed using CellTiter 96 Aqueous Cell Proliferation Assay (Promega) according to the manufacturer's instruction.” for “cells.”

[8] = test system: malignant cell lines with high HDAC and CTSL activity (COGA-10, HCA-7, HT29, HCT116); assay: MTS cell viability assay, malignant colon cancer cell lines; type: cell-based, human; details: 5 d, panel of colon cell lines, given as a range, read-out: IC50, inhibition of cell viability
Procedure: FIG. 13. Inhibition of cell viability by BKAc-Puro is presented in dose-response curve format for the same cell lines as in FIG. 8. The cell lines were treated with DMSO or the indicated doses of agent (4.22, 8.44, 16.9, 33.8, 67.5, or 135 μM) for 5 d followed by MTS assay. Data represent mean values of triplicate mesurements±s.d. (n=3). IC50 values were fit by logistic regression.
as §2, with “cells. Data were obtained from duplicated samples with quadruplicate measurements. MTS based cell viability assay was performed using CellTiter 96 Aqueous Cell Proliferation Assay (Promega) according to the manufacturer's instruction.” for “cells.”

Structure (SMILES): COc1ccc(C[C@H](NC(=O)[C@H](CCCCNC(C)=O)NC(=O)OC(C)(C)C)C(=O)N[C@H]2[C@@H](O)[C@H](n3cnc4c(N(C)C)ncnc43)O[C@@H]2CO)cc1 [BKAc-Puro, N-[3′-(α-Amino-p-methoxyhydrocinnamamido)-3′-deoxy-N,N-dimethyldenosinyl]-N-α-(t-butoxycarbonyl)-N-ε-acetyl-L-lysineamide]
- cell proliferation (cell number) [1]: allowed them to proliferate to confluency
- tumor incidence (tumor volume above threshold after 2 weeks of daily treatment) ([2]; 200 mg/kg, intraperitoneal): no tumors greater than 300 mm^2 were observed
- tumor growth ([2]; intraperitoneal, tumors 200 mm^3 at start): inhibition of tumor growth
- toxicity in tumor incidence study ([2]; mouse, in vivo): no toxicity was observed
- cell death [3]: unharmed
- anticancer effect on cell viability ([4]; 54 μM, 5 d, MTS): effective
- cell death ([4]; cells known to be resistant to 5-FU and Gemicitabine): effectively caused cell death
- intensity of Puro incorporation in the presence of TSA ([5]; TSA 0.5 μM): compromised intensity
- intensity of Puro incorporation, malignant vs normal and non-malignant cells ([5]; immunoblot, Boc-KAc-Puro 16.9 μM 20 h, Puro 2.1 μM 16 h): substantially greater in malignant cancer cells
- effect on normal colon cells [6]: relatively little effect
- cell death [7]: effectively caused cell death
- IC50 [8]: ~10 µM
